# From US20250129027A1 (APOGEE PHARMACEUTICALS, INC., priority 2023, published 2025)
# Legend:
# [1] = biological target: human recombinant MAGL (Homo sapiens (Human), UniProt Q99685); assay: In vitro inhibition of MAGL activity (inhibitor screening kit, 4-nitrophenylacetate); type: biochemical; conditions: human recombinant MAGL
# Method in brief: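 Colorimetric kit assay: recombinant human MAGL hydrolyses 4-nitrophenylacetate to 4-nitrophenol, read by absorbance at 405-412 nm. Inhibition given as percentage of signal in treated versus untreated MAGL control.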
# [2] = biological target: human recombinant FAAH (Homo sapiens (Human), UniProt O00519); assay: In vitro inhibition of FAAH activity (fluorescent inhibitor screening kit, AMC arachidonoyl amide); type: biochemical; conditions: human recombinant FAAH; read-out: Inhibition on FAAH activity (IC50)
# human recombinant FAAH, sequence (O00519 whole entry): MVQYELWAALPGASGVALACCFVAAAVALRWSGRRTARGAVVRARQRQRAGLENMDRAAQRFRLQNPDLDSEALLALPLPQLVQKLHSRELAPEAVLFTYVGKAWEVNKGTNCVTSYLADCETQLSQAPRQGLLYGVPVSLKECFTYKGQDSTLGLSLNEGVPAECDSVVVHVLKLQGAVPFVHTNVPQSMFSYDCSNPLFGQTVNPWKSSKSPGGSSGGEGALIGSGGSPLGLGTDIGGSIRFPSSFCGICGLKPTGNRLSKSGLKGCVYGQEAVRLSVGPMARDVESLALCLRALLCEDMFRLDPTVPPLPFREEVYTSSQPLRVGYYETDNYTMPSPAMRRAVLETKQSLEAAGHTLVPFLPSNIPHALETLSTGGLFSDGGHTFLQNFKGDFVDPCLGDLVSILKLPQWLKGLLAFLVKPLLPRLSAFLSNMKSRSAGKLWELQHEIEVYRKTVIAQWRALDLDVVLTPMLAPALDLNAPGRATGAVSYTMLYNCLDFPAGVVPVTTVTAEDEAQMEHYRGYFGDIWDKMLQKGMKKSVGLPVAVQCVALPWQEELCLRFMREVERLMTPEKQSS
# Method in brief: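 Fluorogenic kit assay: AMC arachidonoyl amide is cleaved by human recombinant FAAH, read at 340-360/450-465 nm. Percent inhibition versus non-treated control; IC50 values derived from multiple compound concentrations where tested.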
# human recombinant MAGL, sequence (Q99685 whole entry): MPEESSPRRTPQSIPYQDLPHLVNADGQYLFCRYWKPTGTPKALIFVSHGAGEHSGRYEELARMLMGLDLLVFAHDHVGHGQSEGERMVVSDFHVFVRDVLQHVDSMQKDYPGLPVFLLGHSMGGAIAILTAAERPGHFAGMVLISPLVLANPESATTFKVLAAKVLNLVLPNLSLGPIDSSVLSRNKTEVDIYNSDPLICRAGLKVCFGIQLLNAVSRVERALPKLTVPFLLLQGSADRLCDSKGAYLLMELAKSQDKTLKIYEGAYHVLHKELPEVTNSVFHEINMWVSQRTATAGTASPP
Compound,IC50 [1],IC50 [2]
"O=C(NCC1CCCCC1)Oc1cccc(-c2cncc(-c3nccs3)c2)c1 [Example 116, 3-(5-(thiazol-2-yl)pyridin-3-yl)phenyl (cyclohexylmethyl)carbamate]",~10000 nM,10 to 100 nM
"CC1CCCCN1C(=O)Oc1cccc(-c2cncc(-c3nnco3)c2)c1 (centres unmarked) [Example 143, 3-(5-(1,3,4-oxadiazol-2-yl)pyridin-3-yl)phenyl 2-methylpiperidine-1-carboxylate]",> 10000 nM,~10000 nM
"O=C(NC1CCCCCC1)Oc1cccc(-c2cncc(-c3nnn[nH]3)c2)c1 [Example 243, 3-(5-(1H-tetrazol-5-yl)pyridin-3-yl)phenyl cycloheptylcarbamate]",> 10000 nM,> 1000 nM
"O=C(NC1CCCCCC1)Oc1cccc(-c2cncc(-c3ccno3)c2)c1 [Example 108, 3-(5-(isoxazol-5-yl)pyridin-3-yl)phenyl cycloheptylcarbamate]",> 1000 nM,10 to 100 nM
"CSc1ccc(OC(=O)NCC2CCCCC2)cc1-c1cncc(-c2nnco2)c1 [Example 187, 3-(5-(1,3,4-oxadiazol-2-yl)pyridin-3-yl)-4-(methylthio)phenyl (cyclohexylmethyl) carbamate]",> 10000 nM,100 to 1000 nM
"O=C(NC1CCCC1)Oc1ccc(O)c(-c2cncc(-c3ncn[nH]3)c2)c1 [Example 229, 3-(5-(1H-1,2,4-triazol-5-yl)pyridin-3-yl)-4-hydroxyphenyl cyclopentylcarbamate]",> 10000 nM,10 to 100 nM
"O=C(NCC1CCCCC1)Oc1ccc(O)c(-c2cncc(-c3ncn[nH]3)c2)c1 [Example 227, 3-(5-(1H-1,2,4-triazol-5-yl)pyridin-3-yl)-4-hydroxyphenyl (cyclohexyl methyl) carbamate]",> 10000 nM,100 to 1000 nM
"Cc1ccc(-c2cncc(-c3ncco3)c2)cc1OC(=O)NC1CCC(C)CC1 (centres unmarked) [Example 96, 2-methyl-5-(5-(oxazol-2-yl)pyridin-3-yl)phenyl (4-methylcyclohexyl)carbamate]",> 10000 nM,> 1000 nM
"O=C(NC1CCCC1)Oc1cccc(-c2cncc(-c3nnco3)c2)c1 [Example 138, 3-(5-(1,3,4-oxadiazol-2-yl)pyridin-3-yl)phenyl cyclopentylcarbamate]",> 50000 nM,10 to 100 nM
"CSc1ccc(OC(=O)NCc2ccccc2)cc1-c1cncc(-c2nnco2)c1 [Example 188, 3-(5-(1,3,4-oxadiazol-2-yl)pyridin-3-yl)-4-(methylthio)phenyl benzylcarbamate]",> 10000 nM,> 1000 nM
"COc1ccc(OC(=O)NC2CCCCCC2)cc1-c1cncc(-c2ncn[nH]2)c1 [Example 237, 3-(5-(1H-1,2,4-triazol-5-yl)pyridin-3-yl)-4-methoxyphenyl cycloheptylcarbamate]",> 10000 nM,100 to 1000 nM
"COc1ccc(OC(=O)NCc2ccccc2)cc1-c1cncc(-c2nncs2)c1 [Example 215, 3-(5-(1,3,4-thiadiazol-2-yl)pyridin-3-yl)-4-methoxyphenyl benzylcarbamate]",> 10000 nM,100 to 1000 nM
"3-(5-(1,3,4-oxadiazol-2-yl pyridin-3-yl)phenyl pentylcarbamate [Example 127]",> 50000 nM,10 to 100 nM
"O=C(Nc1ccccc1)Oc1ccc(OC(F)(F)F)c(-c2cncc(-c3nnco3)c2)c1 [Example 203, 3-(5-(1,3,4-oxadiazol-2-yl)pyridin-3-yl)-4-(trifluoromethoxy)phenyl phenylcarbamate]",> 10000 nM,> 1000 nM
"CCCCCCCCNC(=O)Oc1cc(OC)cc(-c2cncc(-c3nnco3)c2)c1 [Example 174, 3-(5-(1,3,4-oxadiazol-2-yl)pyridin-3-yl)-5-methoxyphenyl octylcarbamate]",~10000 nM,1 to 10 nM
"CCOC(=O)c1cncc(-c2cccc(OC(=O)NC3CCCC3)c2)c1 [Example 5, ethyl 5-(3-((cyclopentylcarbamoyl)oxy)phenyl)nicotinate]",> 10000 nM,10 to 100 nM
"O=C(NC1CCCCC1)Oc1ccc(O)c(-c2cncc(-c3nnn[nH]3)c2)c1 [Example 248, 3-(5-(1H-tetrazol-5-yl)pyridin-3-yl)-4-hydroxyphenyl cyclohexylcarbamate]",> 10000 nM,> 1000 nM
"CCCCCCCCNC(=O)Oc1ccc(OC)c(-c2cncc(-c3ccno3)c2)c1 [Example 109, 3-(5-(isoxazol-5-yl)pyridin-3-yl)-4-methoxyphenyl octylcarbamate]",~10000 nM,1 to 10 nM
"O=Cc1cncc(-c2cccc(OC(=O)NCC3CCCCC3)c2)c1 [Example 17, 3-(5-formylpyridin-3-yl)phenyl (cyclohexylmethyl)carbamate]",> 10000 nM,10 to 100 nM
"O=C(NCC1CCCCC1)Oc1cc(O)cc(-c2cncc(-c3nnco3)c2)c1 [Example 161, 3-(5-(1,3,4-oxadiazol-2-yl)pyridin-3-yl)-5-hydroxyphenyl (cyclohexylmethyl)carbamate]",10000 to 50000 nM,10 to 100 nM

Compound,IC50 [1],IC50 [2]
"COc1ccc(OC(=O)NC2CCCC2)cc1-c1cncc(-c2ccno2)c1 [Example 112, 3-(5-(isoxazol-5-yl)pyridin-3-yl)-4-methoxyphenyl cyclopentylcarbamate]",> 10000 nM,~100 nM
"COc1ccc(OC(=O)NC2CCCC2)cc1-c1cncc(-c2ncco2)c1 [Example 80, 4-methoxy-3-(5-(oxazol-2-yl)pyridin-3-yl)phenyl cyclopentylcarbamate]",> 10000 nM,10 to 100 nM
"O=C(NC1CCCCC1)Oc1ccc(OC(F)(F)F)c(-c2cncc(-c3nnco3)c2)c1 [Example 200, 3-(5-(1,3,4-oxadiazol-2-yl)pyridin-3-yl)-4-(trifluoromethoxy)phenyl cyclohexylcarbamate]",> 10000 nM,100 to 1000 nM
"CCCCCCCCNC(=O)Oc1ccc(N(C)C)c(-c2cncc(-c3nnco3)c2)c1 [Example 180, 3-(5-(1,3,4-oxadiazol-2-yl)pyridin-3-yl)-4-(dimethylamino)phenyl octylcarbamate]",> 10000 nM,10 to 100 nM
"CCCCCNC(=O)Oc1cccc(-c2cncc(C=O)c2)c1 [Example 14, 3-(5-formylpyridin-3-yl)phenyl pentylcarbamate]",10000 to 50000 nM,10 to 100 nM
"O=C(Oc1cccc(-c2cncc(-c3nnco3)c2)c1)N1CCCCC1 [Example 141, 3-(5-(1,3,4-oxadiazol-2-yl)pyridin-3-yl)phenyl piperidine-1-carboxylate]",> 10000 nM,~1000 nM
"O=C(NCC1CCCCC1)Oc1cccc(-c2cncc(-c3ccc[nH]3)c2)c1 [Example 36, 3-(5-(1H-pyrrol-2-yl)pyridin-3-yl)phenyl (cyclohexylmethyl)carbamate]",~10000 nM,100 to 1000 nM
"O=C(NC1CCCCCC1)Oc1ccc(O)c(-c2cncc(-c3nnn[nH]3)c2)c1 [Example 249, 3-(5-(1H-tetrazol-5-yl)pyridin-3-yl)-4-hydroxyphenyl cycloheptylcarbamate]",> 10000 nM,> 1000 nM
"O=C(NC1CCCC1)Oc1cccc(-c2cncc(-c3nncs3)c2)c1 [Example 210, 3-(5-(1,3,4-thiadiazol-2-yl)pyridin-3-yl)phenyl cyclopentylcarbamate]",> 10000 nM,~100 nM
"N#Cc1cncc(-c2cccc(OC(=O)NC3CCCCC3)c2)c1 [Example 28, 3-(5-cyanopyridin-3-yl)phenyl cyclohexylcarbamate]",> 10000 nM,100 to 1000 nM
"O=C(NC1CCCCC1)Oc1cccc(-c2cncc(-c3nccs3)c2)c1 [Example 119, 3-(5-(thiazol-2-yl)pyridin-3-yl)phenyl cyclohexylcarbamate]",> 10000 nM,10 to 100 nM
"O=C(NCC1CCCCC1)Oc1cccc(-c2cncc(-c3ncco3)c2)c1 [Example 74, 3-(5-(oxazol-2-yl)pyridin-3-yl)phenyl (cyclohexylmethyl)carbamate]",> 1000 nM,10 to 100 nM
"O=C(Oc1cccc(-c2cncc(-c3nnco3)c2)c1)N1CCC2(CC1)COC2 [Example 153, 3-(5-(1,3,4-oxadiazol-2-yl)pyridin-3-yl)phenyl 2-oxa-7-azaspiro[3.5]nonane-7-carboxylate]",> 10000 nM,1000 to 10000 nM
"CCCCCNC(=O)Oc1cccc(-c2cncc(-c3ncco3)c2)c1 [Example 71, 3-(5-(oxazol-2-yl)pyridin-3-yl)phenyl pentylcarbamate]",> 10000 nM,10 to 1000 nM
"CN(C)c1ccc(OC(=O)NC2CCCCCC2)cc1-c1cncc(-c2nnco2)c1 [Example 185, 3-(5-(1,3,4-oxadiazol-2-yl)pyridin-3-yl)-4-(dimethylamino)phenyl cycloheptylcarbamate]",> 10000 nM,100 to 1000 nM
"Cc1ccc(-c2cncc(-c3ncco3)c2)cc1OC(=O)NCc1ccccc1 [Example 94, 2-methyl-5-(5-(oxazol-2-yl)pyridin-3-yl)phenyl benzylcarbamate]",> 1000 nM,> 1000 nM
"O=C(NCc1ccccc1)Oc1cccc(-c2cncc(-c3cccs3)c2)c1 [Example 61, 3-(5-(thiophen-2-yl)pyridin-3-yl)phenyl benzylcarbamate]",> 10000 nM,~100 nM
"COc1cc(OC(=O)NCC2CCCCC2)cc(-c2cncc(-c3nnco3)c2)c1 [Example 175, 3-(5-(1,3,4-oxadiazol-2-yl)pyridin-3-yl)-5-methoxyphenyl (cyclohexylmethyl)carbamate]",> 10000 nM,~100 nM
"CN(C)c1ccc(OC(=O)NC2CCCCC2)cc1-c1cncc(-c2nnco2)c1 [Example 184, 3-(5-(1,3,4-oxadiazol-2-yl)pyridin-3-yl)-4-(dimethylamino)phenyl cyclohexylcarbamate]",> 10000 nM,> 1000 nM
"CCCCCCCNC(=O)Oc1cccc(-c2cncc(C(=O)OCC)c2)c1 [Example 2, ethyl 5-(3-((heptylcarbamoyl)oxy)phenyl)nicotinate]",1000 to 10000 nM,10 to 100 nM
